Measured values reported in PMC8919507, “Dual Reversible Coumarin Inhibitors Mutually Bound to Monoamine Oxidase B and Acetylcholinesterase Crystal Structures” (ACS Medicinal Chemistry Letters, 2022).

Biological target: T1, mouse AChE (Mus musculus, UniProt P21836)
T1 sequence (P21836 32-614): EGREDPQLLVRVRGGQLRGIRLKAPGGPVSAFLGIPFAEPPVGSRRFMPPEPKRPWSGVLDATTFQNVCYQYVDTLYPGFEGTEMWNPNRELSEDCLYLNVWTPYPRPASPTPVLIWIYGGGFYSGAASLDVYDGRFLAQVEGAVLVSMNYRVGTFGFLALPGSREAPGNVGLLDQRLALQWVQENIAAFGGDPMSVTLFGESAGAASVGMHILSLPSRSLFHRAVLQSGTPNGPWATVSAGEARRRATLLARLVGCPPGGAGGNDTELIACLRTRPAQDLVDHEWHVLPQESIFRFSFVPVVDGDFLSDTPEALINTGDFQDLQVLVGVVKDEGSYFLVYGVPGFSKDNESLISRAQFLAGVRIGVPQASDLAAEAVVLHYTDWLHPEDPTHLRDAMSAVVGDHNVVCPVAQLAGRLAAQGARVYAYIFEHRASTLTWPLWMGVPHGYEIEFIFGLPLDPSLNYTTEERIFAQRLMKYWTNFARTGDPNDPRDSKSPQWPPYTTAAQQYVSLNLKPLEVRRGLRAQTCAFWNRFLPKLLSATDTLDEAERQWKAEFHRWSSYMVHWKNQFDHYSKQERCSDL
Assay: AChE inhibition, spectrophotometric Ellman's method on purified recombinant enzyme
Settings: 1 mM acetylthiocholine iodide, pH 7.4
Procedure: Mouse AChE was expressed in HEK293 F cells and purified as previously reported.3 The activity
of AChE was measured using the Ellman assay adaped to a 96-well plate format.4 The
acetylthiocholine iodide was 1 mM. The measurements were performed in 0.1 M phosphate
Determination of IC50 values for the compounds
inhibition of AChE was performed as previously reported.6 At least 5 replicate IC50 determinations at 8
inhibitor concentrations were performed for each compound. The obtained dose-response curve was
fitted using the response variable slope versus log(inhibitor concentration) equation (four parameters) in
GraphPad Prism software 5.0.

SMILES | IC50
Cc1c(C)c2ccc(OCC3CCCN(Cc4ccccc4)C3)cc2oc1=O (single isomer, unassigned; (+)) [(+)-2, 7-[(1-benzylpiperidin-3-yl)methoxy]-3,4-dimethyl-2H-chromen-2-one] | 1500 ± 100 nM
Cc1c(C)c2ccc(OCC3CCCN(Cc4ccccc4)C3)cc2oc1=O (single isomer, unassigned; (-)) [(−)-2, 7-[(1-benzylpiperidin-3-yl)methoxy]-3,4-dimethyl-2H-chromen-2-one] | 700 ± 50 nM
